Results published in patent US10662193B2, “Carbazole and carboline compounds for use in the diagnosis, treatment, alleviation or prevention of disorders associated with amyloid or amyloid-like proteins” (AC IMMUNE SA, priority 2014, dated 2020).

Test system: tau tangles/Aβ plaques on AD brain sections
Assay: Assay 1: direct staining of human Alzheimer's disease brain sections (fluorescence)
Type: binding
Set-up: key to Direct staining of tau tangles/Aβ plaques on AD brain sections at 100 μM / Direct staining of tau tangles on AD brain sections at 100 μM / Direct staining of Aβ plaques on AD brain sections at 100 μM / Direct staining of tau tangles on AD brain sections (footnote a: at 250 μM): − (No); +++ (strong); ++ (good); + (weak)
Protocol: Assay 1 (Fluorescence Based Assay):
Direct Binding of Compounds of this Invention to Human Alzheimer's Disease Brain Sections and/or Displacement of RefA and Compound B
Frozen sections with a thickness of […] from the amygdala of donors diagnosed with Braak stage V-VI Alzheimer's Disease (Braak, H.; Braak, E. Acta Neuropathol., 1991, 82, 239-259), were purchased from a commercial provider (Tissue Solutions) and kept at −80° C. until use.
Direct Staining of Human Alzheimer's Disease Brain Sections
Brain sections were encircled with pap pen liquid blocker to reduce the volume of solution for the different incubations. Sections were fixed for 15 min at 4° C. with 4% paraformaldehyde and washed three times 5 minutes with PBS at room temperature. […] To reduce the auto-fluorescence of the tissue, the sections were incubated in a solution of 0.1% Sudan Black (Sigma 199664) in 70% ethanol for 15 min at room temperature in the dark, washed four times for 5 minutes with PBS, and mounted using ProLong Gold Antifade reagent (Invitrogen P36930). Sections were then analyzed on the Nikon Eclipse Ti microscope to detect staining and imaged using Nikon DS-Fi2 camera and NIS-Element AR4.13.1 software.

[1] = 100 μM compound, human AD brain sections, fluorescence, cell does not say tangles or plaques
[2] = 100 μM in 50% ethanol, 20 min, "(tangles)" beside the symbol = tangles stained

CN1CCc2c(c3ccc(Nc4cccc(OCCF)n4)nc3n2C)C1=O [Example 209]
Direct staining of tau tangles/Aβ plaques on AD brain sections at 100 μM [1]: −

Cn1c2ccncc2c2ccc(Nc3ccc(F)c(OCCF)c3)nc21 [Example 57]
Direct staining of tau tangles on AD brain sections at 100 μM (100 μM compound): ++ (tangles)

Fc1ccc(Nc2ccc3c(n2)[nH]c2ccncc23)cc1F [Example 27]
Direct staining of Aβ plaques on AD brain sections at 100 μM (100 μM compound): + (tangles) + (plaques) | Direct staining of tau tangles on AD brain sections at 100 μM (100 μM compound): + (tangles) + (plaques)

Cn1c2c(c3ccc(Nc4ccc(F)c(F)c4)nc31)C(=O)N(CCF)CC2 [Example 183]
Direct staining of Aβ plaques on AD brain sections at 100 μM (100 μM compound): + (plaques)

CN1CCc2c(c3ccc(Nc4ccc(O)c(F)c4)nc3n2C)C1=O [Example 202]
Direct staining of tau tangles/Aβ plaques on AD brain sections at 100 μM [1]: −

Cn1c2ccncc2c2ccc(Nc3cncc(OCCCF)c3)nc21 [Example 97]
Direct staining of tau tangles on AD brain sections at 100 μM (100 μM compound): +++ (tangles)

CN1CCc2c(c3ccc(Nc4ccc(F)nc4)nc3n2C)C1=O [Example 182]
Direct staining of tau tangles/Aβ plaques on AD brain sections at 100 μM [1]: −

Cn1c2ccncc2c2ccc(Nc3ncc(C#N)s3)nc21 [Example 61]
Direct staining of tau tangles/Aβ plaques on AD brain sections at 100 μM [1]: −

Cn1c2cc[nH]c(=O)c2c2ccc(Nc3cccc(OC(F)F)c3)nc21 [Example 193]
Direct staining of tau tangles/Aβ plaques on AD brain sections at 100 μM [1]: −

Cn1c2ccncc2c2ccc(Nc3ccc(F)nc3)nc21 [Example 22]
Direct staining of Aβ plaques on AD brain sections at 100 μM (100 μM compound): + (tangles) + (plaques | Direct staining of tau tangles on AD brain sections at 100 μM (100 μM compound): + (tangles) + (plaques

Cc1nn(CCF)c(C)c1Nc1ccc2c3cnccc3n(C)c2n1 [Example 49]
Direct staining of tau tangles on AD brain sections at 100 μM (100 μM compound): + (tangles)

COc1ccc(/C=C/c2ccc3nc(N4CCOCC4)sc3c2)cc1 [Compound B, reference compound]
Direct staining of Aβ plaques on AD brain section (100 μM, FIG. 2): Direct staining of Aβ plaques

COCCOCCn1c2ccncc2c2ccc(Nc3cccc(OCCF)c3)nc21 [Example 167]
Direct staining of tau tangles/Aβ plaques on AD brain sections at 100 μM [1]: −

Cn1c2ccncc2c2ccc(Nc3cccc(OCCOCCOCCF)n3)nc21 [Example 60]
Direct staining of Aβ plaques on AD brain sections at 100 μM (100 μM compound): ++ (tangles) ++ (plaques) | Direct staining of tau tangles on AD brain sections at 100 μM (100 μM compound): ++ (tangles) ++ (plaques)

CNc1cc(Nc2ccc3c4cnccc4n(C)c3n2)ccc1F [Example 42]
Direct staining of Aβ plaques on AD brain sections at 100 μM (100 μM compound): +++ (plaques)

COc1ccc(C2C(CCC(=O)NCCCCCC(=O)N(C)C)=C/C(=C/c3[nH]c(C)cc3C)N2B(F)F)cc1 (centres unmarked) [Prep. Example 18, reference compound]
Direct staining of tau tangles/Aβ plaques on AD brain sections at 100 μM [2]: −

CN1CCc2c(c3ccc(Nc4ccc(OCCF)c(F)c4)nc3n2C)C1=O [Example 198]
Direct staining of tau tangles/Aβ plaques on AD brain sections at 100 μM [1]: −

Cn1c2ccncc2c2ccc(Nc3cc(CCF)ccn3)nc21 [Example 148]
Direct staining of tau tangles on AD brain sections at 100 μM (100 μM compound): ++ (tangles)

Cn1c2ccncc2c2ccc(Nc3ccc(NCCF)cn3)nc21 [Example 79]
Direct staining of tau tangles/Aβ plaques on AD brain sections at 100 μM [1]: −

Cn1c2c(c3ccc(Nc4cccc(OCCF)c4)nc31)C(=O)NCC2 [Example 178]
Direct staining of tau tangles/Aβ plaques on AD brain sections at 100 μM [1]: −

CN(C)C(=O)CCc1ccc(/C=C2/C=CC(c3cccs3)N2)n1B(F)F (centres unmarked) [Prep. Example 17, reference compound]
Direct staining of tau tangles/Aβ plaques on AD brain sections at 100 μM [2]: −

Cn1c2ccncc2c2ccc(Nc3cncc(F)c3)nc21 [Example 29]
Direct staining of tau tangles on AD brain sections at 100 μM (100 μM compound): + (tangles)

COc1cc(Nc2ccc3c4cnccc4n(C)c3n2)ccc1F [Example 31]
Direct staining of Aβ plaques on AD brain sections at 100 μM (100 μM compound): + (tangles) + (plaques) | Direct staining of tau tangles on AD brain sections at 100 μM (100 μM compound): + (tangles) + (plaques)

COc1cc(Nc2ccc3c4c(n(C)c3n2)CCNC4=O)ccc1F [Example 180]
Direct staining of tau tangles/Aβ plaques on AD brain sections at 100 μM [1]: −

Cn1c2ccncc2c2ccc(Nc3ccc(C#N)c(OCCF)c3)nc21 [Example 21]
Direct staining of tau tangles/Aβ plaques on AD brain sections at 100 μM [1]: −

OCCn1c2ccncc2c2ccc(Nc3cccc(OCCF)c3)nc21 [Example 165]
Direct staining of tau tangles/Aβ plaques on AD brain sections at 100 μM [1]: −

FCCN(c1ccc(F)c(F)c1)c1ccc2c3cnccc3n(CCF)c2n1 [Example 164]
Direct staining of Aβ plaques on AD brain sections at 100 μM (100 μM compound): + (plaques)

COc1ccc(Nc2ccc3c4cnccc4n(C)c3n2)cc1F [Example 30]
Direct staining of Aβ plaques on AD brain sections at 100 μM (100 μM compound): + (tangles) + (plaques) | Direct staining of tau tangles on AD brain sections at 100 μM (100 μM compound): + (tangles) + (plaques)

CN1CCc2c(c3ccc(Nc4ccc(F)c(OCCF)c4)nc3n2C)C1=O [Example 200]
Direct staining of Aβ plaques on AD brain sections at 100 μM (100 μM compound): + (tangles) + (plaques) | Direct staining of tau tangles on AD brain sections at 100 μM (100 μM compound): + (tangles) + (plaques)

Cn1c2c(c3ccc(Nc4ccc(C#N)c(OCCF)c4)nc31)C(=O)NCC2 [Example 176]
Direct staining of tau tangles/Aβ plaques on AD brain sections at 100 μM [1]: −

CN1CCc2c(c3ccc(Nc4ccc(NCCF)cn4)nc3n2C)C1=O [Example 83]
Direct staining of tau tangles on AD brain sections at 100 μM (100 μM compound): + (tangles)

CN1CCc2c(c3ccc(Nc4ccc(OCCF)cn4)nc3n2C)C1=O [Example 206]
Direct staining of tau tangles/Aβ plaques on AD brain sections at 100 μM [1]: −

Fc1ccc(Nc2ccc3c(c2)[nH]c2ccncc23)cc1F [Example 37]
Direct staining of tau tangles on AD brain sections at 100 μM (100 μM compound): + (tangles)

Cn1c2ccncc2c2ccc(Nc3cccc(N4CC(F)C4)c3)nc21 [Example 32]
Direct staining of Aβ plaques on AD brain sections at 100 μM (100 μM compound): + (tangles) + (plaques) | Direct staining of tau tangles on AD brain sections at 100 μM (100 μM compound): + (tangles) + (plaques)

CN(CCF)c1cccc(Nc2ccc3c4cnccc4n(C)c3n2)c1 [Example 26]
Direct staining of Aβ plaques on AD brain sections at 100 μM (100 μM compound): +++ (plaques)

Cn1c2c(c3ccc(Nc4ccc(F)c(F)c4)nc31)C(=O)N(CCO)CC2 [Example 215]
Direct staining of tau tangles/Aβ plaques on AD brain sections at 100 μM [2]: −

Cn1c2cccnc2c2ccc(Nc3cccc(OCCF)c3)nc21 [Example 163]
Direct staining of tau tangles on AD brain sections at 100 μM (100 μM compound): ++ (tangles)

CN1CCc2c(c3ccc(Nc4cccc(NCCF)c4)nc3n2C)C1=O [Example 84]
Direct staining of tau tangles/Aβ plaques on AD brain sections at 100 μM [1]: −

Cn1c2c(c3ccc(Nc4ccc(F)c(F)c4)nc31)C(=O)N(CCCN)CC2 [213 Step F]
Direct staining of tau tangles/Aβ plaques on AD brain sections at 100 μM [2]: −

Cn1c2c(c3ccc(Nc4ccc(OCCF)c(F)c4)nc31)C(=O)NCC2 [Example 199]
Direct staining of Aβ plaques on AD brain sections at 100 μM (100 μM compound): + (tangles) + (plaques) | Direct staining of tau tangles on AD brain sections at 100 μM (100 μM compound): + (tangles) + (plaques)

Cn1c2c(c3ccc(Nc4ccc(NCCF)cn4)nc31)C(=O)NCC2 [Example 82]
Direct staining of tau tangles on AD brain sections at 100 μM (100 μM compound): + (tangles)

Cn1c2c(c3ccc(Nc4ccnc(OCCF)c4)nc31)C(=O)NCC2 [Example 205]
Direct staining of tau tangles/Aβ plaques on AD brain sections at 100 μM [1]: −

Cn1c2ccncc2c2ccc(Nc3ccc(F)cc3)nc21 [Example 18]
Direct staining of tau tangles/Aβ plaques on AD brain sections at 100 μM [1]: −

CN1CCc2c(c3ccc(Nc4ccc(F)c(O)c4)nc3n2C)C1=O [Example 203]
Direct staining of tau tangles/Aβ plaques on AD brain sections at 100 μM [1]: −

CN1CCc2c(c3ccc(Nc4ccn(CCF)n4)nc3n2C)C1=O [Example 190]
Direct staining of tau tangles/Aβ plaques on AD brain sections at 100 μM [1]: −

Cn1c2c(c3ccc(Nc4ccc(OCCF)cc4)nc31)C(=O)NCC2 [Example 177]
Direct staining of tau tangles/Aβ plaques on AD brain sections at 100 μM [1]: −

OCCn1c2ccncc2c2ccc(Nc3ccc(F)c(F)c3)nc21 [Example 166]
Direct staining of tau tangles/Aβ plaques on AD brain sections at 100 μM [1]: −

Cn1c2ccncc2c2ccc(Nc3ccc(OCCF)cc3)nc21 [Example 20]
Direct staining of Aβ plaques on AD brain sections at 100 μM (100 μM compound): + (plaques)
